According to EP0241804A2, “Preserved antacid preparations” (BAYER AG, priority 1986, dated 1987):

Test system: Testmikroorganismen
Experiment: Preservative challenge test (BP 1980 / USP XXI) of antacid preparations
Type: cell-based
Settings: for Ergebnisse von Konservierungstests: Hydrotalcitsuspensionen with the preservative added at various concentrations (Tabelle 2); for Vermehrung von Bakterien und Hefen: Hydrotalcitsuspensionen, also at high preservative concentrations
Text: Der Nachweis der einwandfreien Haltbarmachung von Antacida-Zubereitungen erfolgte mit Hilfe geeigneter Konservierungsbelastungstests wie sie z.B. in der Britischen Pharmakopöe von 198O (British Pharmacopoeia 198O, Addendum 1982, Revised Apendix XVIC: Efficacy of Antimicrobial Preservatives in Pharmaceutical Products) oder der Pharmakopöe der Vereinigten Staaten (The United States Pharmacopeia XXI (1985) Antimicrobial Preservatives Effectiveness,S. 1151-1156) beschrieben werden.
Neben einer Richtlinie der WHO für nichtsterile Produkte, die eine Begrenzung des Keimgehalts in nichtsterilen oralen Arzneimitteln auf 1OOO/ml fordert, gelten unterschiedlich hohe Anforderungen hinsichtlich der Abtötungsrate für bestimmte Testmikroorganismen, je nach Pharmakopöe. Die britische Pharmakopöe verlangt z.B. eine Verminderung der Bakterienkonzentration um 2 Zehnerpotenzen innerhalb von 7 Tagen sowie keine Vermehrung von Hefen und Schimmelpilzen (s. Tab. 1).

Row | Structure (SMILES) | Ergebnisse von Konservierungstests | Vermehrung von Bakterien und Hefen
1 | O=C(O)c1ccccc1 [Benzoesäure] | unwirksam | Vermehrung von Bakterien und Hefen
2 | C=CCc1ccc(O)c(OC)c1 [Eugenol, 2-Methoxy-4-(2-propenyl)phenol] | gut konserviert | –
3 | C/C=C/C=C/C(=O)O [Sorbinsäure] | unwirksam | Vermehrung von Bakterien und Hefen
4 | Cc1ccc(C(C)C)c(O)c1 [Thymol, 5-Methyl-2-(1-methylethyl)phenol] | gut konserviert | –
5 | N=C(NCCCCCCNC(=N)NC(=N)Nc1ccc(Cl)cc1)NC(=N)Nc1ccc(Cl)cc1 [Chlorhexidin] | unwirksam | –
6 | O=CC=Cc1ccccc1 [Zimtaldehyd, 3-Phenyl-2-propenal] | gut konserviert | –
